These results are taken from ChEMBL document CHEMBL1649104, “Benzofuran Derivatives as Potent, Orally Active S1P1 Receptor Agonists: A Preclinical Lead Molecule for MS” (ACS Med Chem Lett, 2011).

Series [1] deals with T1, Sphingosine 1-phosphate receptor 1 (Homo sapiens, UniProt P21453). Briefly: Agonist activity at human S1P1R expressed in CHO cells assessed as stimulation of [35S]GTPgammaS binding. It counts as functional, cell-based.
For series [2], the target named is T1, Sphingosine 1-phosphate receptor 1. Nature of the series: Induction of human GFP-tagged chimeric S1P1R internalization in human U2Os cells by fluorescence microscopy. It counts as cell-based.
For series [3], the target named is T2, Sphingosine 1-phosphate receptor 3 (Homo sapiens, UniProt Q99500). Nature of the series: Agonist activity at human S1P3R expressed in CHO cells by Ca(2+) mobilization assay. The series is classed as functional, cell-based.
T2 sequence (Q99500 whole entry): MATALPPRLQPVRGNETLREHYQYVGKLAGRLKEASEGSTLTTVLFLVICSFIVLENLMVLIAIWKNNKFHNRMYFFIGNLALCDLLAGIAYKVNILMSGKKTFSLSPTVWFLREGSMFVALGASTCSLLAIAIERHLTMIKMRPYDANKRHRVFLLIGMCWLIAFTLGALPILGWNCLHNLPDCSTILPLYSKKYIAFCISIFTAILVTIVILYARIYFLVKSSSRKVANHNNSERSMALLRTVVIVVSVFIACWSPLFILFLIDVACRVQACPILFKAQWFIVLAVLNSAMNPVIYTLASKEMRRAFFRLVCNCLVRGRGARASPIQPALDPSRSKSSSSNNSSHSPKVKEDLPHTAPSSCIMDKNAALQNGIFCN
For series [4], the target named is T2, Sphingosine 1-phosphate receptor 3. Briefly: Displacement of [33P]S1P from human S1P3R expressed in CHO cell membranes.
The target of series [5] is T1, Sphingosine 1-phosphate receptor 1. Briefly: Induction of human GFP-tagged chimeric S1P1R internalization in human U2Os cells by fluorescence microscopy relative to 1-(4-(6-benzylbenzofuran-2-yl)-3-fluorobenzyl)azetidine-3-carboxylic acid. It counts as cell-based.
A short description of series [6]: Clearance in Beagle dog at 2 mg/kg, iv or 3 mg/kg, po. It counts as ADME, organism-based, Canis lupus familiaris. The note with it: in vivo.
The subject of another series is Mus musculus. Briefly: Reversing disease course in experimental autoimmune encephalitis SJL mouse model of multiple sclerosis at 10 mg/kg, po. It counts as functional, organism-based. Details: dose 10 mg/kg.
Series [7] is described as follows: Oral bioavailability in Sprague-Dawley rat 3 mg/kg. It counts as ADME, organism-based. The settings on record: in vivo.
In series [8] the test system is Rattus norvegicus. Briefly: Lymphopenic activity in Lewis rat assessed as reduction in blood lymphocyte counts at 3 mg/kg, po measured 24 hrs post dose. The series is classed as functional.
A short description of series [9]: Volume of distribution at steady state in Sprague-Dawley rat at 1 mg/kg, iv or 3 mg/kg, po. It counts as ADME, organism-based. The settings on record: in vivo, read-out: Vdss.
The test system of series [10] is Rattus norvegicus. Briefly: Lymphopenic activity in po dosed Lewis rat assessed as reduction in blood lymphocyte counts measured 24 hrs post dose. The series is classed as functional, organism-based.
A short description of series [11]: Mean residence time in cynomolgus monkey at 1 mg/kg, iv or 5 mg/kg, po. The note with it: in vivo. It counts as ADME, organism-based, Macaca fascicularis.
Series [12] in a line: Clearance in Sprague-Dawley rat at 1 mg/kg, iv or 3 mg/kg, po. The note with it: in vivo. The series is classed as ADME, organism-based.
Series [13] deals with Rattus norvegicus. Nature of the series: Toxicity in telemetered Sprague-Dawley rat assessed as increase in mean arterial pressure at 40 mg/kg, po measured 4 to 6 hrs post dose. The series is classed as organism-based, Artery. Details: dose 40 mg/kg, route oral. The note with it: in vivo.
Series [14] in a line: Inhibition of Cytochrome P450. The series is classed as ADME.
Series [15] is described as follows: Volume of distribution at steady state in Beagle dog at 2 mg/kg, iv or 3 mg/kg, po. The settings on record: in vivo, read-out: Vdss. It counts as ADME, organism-based, Canis lupus familiaris.
The nature of series [16]: Oral bioavailability in Beagle dog 3 mg/kg. The settings on record: in vivo. It counts as ADME, organism-based, Canis lupus familiaris.
Series [17] deals with Voltage-gated inwardly rectifying potassium channel KCNH2 (Homo sapiens, UniProt Q12809). Briefly: Inhibition of human ERG by patch-clamp method.
Sequence of Voltage-gated inwardly rectifying potassium channel KCNH2 (Q12809 whole entry): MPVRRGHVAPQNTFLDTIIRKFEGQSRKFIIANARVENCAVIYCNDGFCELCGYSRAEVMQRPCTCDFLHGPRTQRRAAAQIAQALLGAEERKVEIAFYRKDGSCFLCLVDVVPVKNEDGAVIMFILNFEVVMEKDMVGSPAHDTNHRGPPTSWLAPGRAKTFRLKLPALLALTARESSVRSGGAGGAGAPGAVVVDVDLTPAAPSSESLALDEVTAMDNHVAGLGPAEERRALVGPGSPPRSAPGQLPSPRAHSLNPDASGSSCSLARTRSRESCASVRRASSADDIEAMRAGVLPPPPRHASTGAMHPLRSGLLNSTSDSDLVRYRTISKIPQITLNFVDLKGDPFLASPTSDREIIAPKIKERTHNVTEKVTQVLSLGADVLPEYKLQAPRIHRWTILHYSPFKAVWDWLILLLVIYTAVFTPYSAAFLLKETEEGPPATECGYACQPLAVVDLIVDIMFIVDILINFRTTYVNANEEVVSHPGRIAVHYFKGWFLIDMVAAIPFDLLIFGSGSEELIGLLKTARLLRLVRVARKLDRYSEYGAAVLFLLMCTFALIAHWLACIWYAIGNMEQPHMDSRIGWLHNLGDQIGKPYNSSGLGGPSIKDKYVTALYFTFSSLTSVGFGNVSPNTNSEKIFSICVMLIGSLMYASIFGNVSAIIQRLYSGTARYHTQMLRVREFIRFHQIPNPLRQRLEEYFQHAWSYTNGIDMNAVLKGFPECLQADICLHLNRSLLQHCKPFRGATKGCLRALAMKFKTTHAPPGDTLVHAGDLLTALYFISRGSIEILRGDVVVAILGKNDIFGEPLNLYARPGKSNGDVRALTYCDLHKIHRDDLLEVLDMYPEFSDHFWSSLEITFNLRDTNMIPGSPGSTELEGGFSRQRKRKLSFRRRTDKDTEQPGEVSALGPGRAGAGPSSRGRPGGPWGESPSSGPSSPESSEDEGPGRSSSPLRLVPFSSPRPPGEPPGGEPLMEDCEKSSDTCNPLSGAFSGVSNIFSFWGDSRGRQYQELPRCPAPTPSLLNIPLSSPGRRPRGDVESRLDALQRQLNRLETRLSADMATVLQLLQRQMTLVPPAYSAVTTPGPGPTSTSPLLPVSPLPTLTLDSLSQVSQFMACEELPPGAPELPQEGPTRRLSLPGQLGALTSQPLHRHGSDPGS
The test system of series [18] is Rattus norvegicus. Nature of the series: Toxicity in telemetered Sprague-Dawley rat assessed as increase in mean arterial pressure at 20 mg/kg, po measured 4 to 6 hrs post dose. The series is classed as organism-based, Artery. The settings on record: in vivo. Further details: dose 20 mg/kg, route oral.
Series [19] in a line: Induction of Cytochrome P450. The series is classed as ADME.
Series [20] in a line: Metabolic stability in human liver microsomes assessed as half life. The series is classed as ADME, Microsome.
Series [21] in a line: Terminal half life in Sprague-Dawley rat at 1 mg/kg, iv or 3 mg/kg, po. It counts as ADME, organism-based. The settings on record: in vivo, read-out: beta t1/2 (converted).
Series [22] in a line: Mean residence time in Sprague-Dawley rat at 1 mg/kg, iv or 3 mg/kg, po. It counts as ADME, organism-based. The settings on record: in vivo.
Series [23] deals with Rattus norvegicus. Nature of the series: Lymphopenic activity in Lewis rat assessed as reduction in blood lymphocyte counts at 1 mg/kg, po measured 24 hrs post dose. It counts as functional.
Series [24] can be described thus: Terminal half life in cynomolgus monkey at 1 mg/kg, iv or 5 mg/kg, po. The series is classed as ADME, organism-based, Macaca fascicularis. The note with it: in vivo, read-out: beta t1/2 (converted).
Series [25] in a line: Terminal half life in Beagle dog at 2 mg/kg, iv or 3 mg/kg, po. It counts as ADME, organism-based, Canis lupus familiaris. The note with it: in vivo, read-out: beta t1/2 (converted).
Series [26] in a line: Clearance in cynomolgus monkey at 1 mg/kg, iv or 5 mg/kg, po. It counts as ADME, organism-based, Macaca fascicularis. The settings on record: in vivo.
Series [27] can be described thus: Volume of distribution at steady state in cynomolgus monkey at 1 mg/kg, iv or 5 mg/kg, po. It counts as ADME, organism-based, Macaca fascicularis. The note with it: in vivo, read-out: Vdss.
Series [28] concerns Rattus norvegicus. Nature of the series: Toxicity in telemetered Sprague-Dawley rat assessed as effect on heart rate at 40 mg/kg, po. Details: dose 40 mg/kg, route oral. The series is classed as organism-based. The settings on record: in vivo.
Series [29] deals with Rattus norvegicus. Nature of the series: Toxicity in telemetered Sprague-Dawley rat assessed as effect on heart rate at 20 mg/kg, po. Details: dose 20 mg/kg, route oral. It counts as organism-based. The settings on record: in vivo.
The species entered for the next series is Homo sapiens. Briefly: Selectivity for human S1P1R over human S1P3R.
Series [30] is described as follows: Mutagenic activity in Salmonella Typhimurium by Ames assay. The series is classed as toxicity. The note with it: salmonella enterica subsp. enterica serovar typhimurium.
Series [31] is described as follows: Toxicity in rat assessed as No observed adverse effect level by 4 day repeated dose toxicity study. The series is classed as organism-based. The note with it: in vivo.
The nature of series [32]: Mean residence time in Beagle dog at 2 mg/kg, iv or 3 mg/kg, po. The series is classed as ADME, organism-based, Canis lupus familiaris. The note with it: in vivo.
Series [33] is described as follows: Oral bioavailability in cynomolgus monkey 5 mg/kg. It counts as ADME, organism-based, Macaca fascicularis. The note with it: in vivo.

Calls of active or inactive are those of the source. The rule behind the calls is not given here. Some results are limits rather than exact numbers.

T1 sequence (P21453 whole entry): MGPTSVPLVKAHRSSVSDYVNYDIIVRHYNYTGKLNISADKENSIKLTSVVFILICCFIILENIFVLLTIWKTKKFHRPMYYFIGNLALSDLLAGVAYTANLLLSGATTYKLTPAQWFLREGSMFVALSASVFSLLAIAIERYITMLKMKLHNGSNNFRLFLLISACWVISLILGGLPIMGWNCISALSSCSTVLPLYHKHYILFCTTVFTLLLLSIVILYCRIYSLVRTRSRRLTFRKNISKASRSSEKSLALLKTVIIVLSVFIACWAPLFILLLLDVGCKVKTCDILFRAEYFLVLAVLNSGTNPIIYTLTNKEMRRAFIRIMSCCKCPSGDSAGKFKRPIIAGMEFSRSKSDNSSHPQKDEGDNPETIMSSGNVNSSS

On to `O=C(O)C1CN(Cc2ccc(-c3cc4cc(-c5cccnc5)ccc4o3)cc2)C1`, for which the results for the concentration giving a half-maximal response (EC50) in series [1], in series [2] and in series [3] were over 1000 nM, 5030 nM and over 25 µM, respectively.
`CC(C)(C)c1ccc(-c2noc(-c3ccc(CN4CC(C(=O)O)C4)cc3)n2)cc1` yielded an IC50 in series [4] of over 10 µM.
Molecule `CCCCOc1ccc2oc(-c3ccc(CN4CC(C(=O)O)C4)cc3)cc2c1` returned a concentration for a half-maximal effect (EC50) in [3] of over 7.2 µM.
For `O=C(O)C1CN(Cc2ccc(-c3cc4cc(OCC5CC5)ccc4o3)c(F)c2)C1`, the EC50 in series [2] amounted to 290 nM; in [3], 4.8 µM. In series [5], this molecule returned an Efficacy of 156%.
Turning to `O=C(O)C1CN(Cc2ccc(-c3cc4cc(OCC5CCCC5)ccc4o3)c(F)c2)C1`, the values for the EC50 in [2] and in series [3] were 454 nM and over 25 µM, respectively. In addition, the Efficacy in series [5] came to 71%.
Molecule `O=C(O)C1CN(Cc2ccc(-c3cc4cc(Oc5ccccc5)ccc4o3)cc2)C1` yielded a half-maximal effective concentration (EC50) in series [3] of over 25 µM.
For `CCCCOc1ccc2oc(-c3ccc(CN4CC(C(=O)O)C4)cc3OC)cc2c1`, the EC50 in series [2] was 653 nM; in series [3] it was over 25 µM. Moreover, the Efficacy in [5] was found to be 117%.
In the case of `CC(C)Cc1ccc2oc(-c3ccc(CN4CC(C(=O)O)C4)cc3)cc2c1`, the figures for the EC50 in [2] and in [3] were 150 nM and 1.9 µM, respectively.
Molecule `CC(C)Cc1ccc(-c2nc(-c3ccc(CN4CC(C(=O)O)C4)cc3)no2)cc1` gave an IC50 in series [4] of 12 µM.
With `CCCCOc1ccc2oc(-c3ccc(CN4CC(C(=O)O)C4)cc3Cl)cc2c1`, the concentration giving a half-maximal response (EC50) was 158 nM in series [2] and 10.3 µM in series [3]. Also, the Efficacy in series [5] was 104%.
On to `CC(C)(C)c1ccc(-c2nnc(-c3ccc(CN4CC(C(=O)O)C4)cc3)o2)cc1`, for which, in series [4], the IC50 was over 10 µM.
As for `O=C(O)C1CN(Cc2ccc(-c3cc4cc(C5CCCCC5)ccc4o3)cc2)C1`, the half-maximal effective concentration (EC50) in series [1] was 600 nM; in series [2] it was 460 nM; in series [3], over 25 µM.
Turning to `O=C(O)C1CN(Cc2ccc(-c3cc4cc(CCc5ccccc5)ccc4o3)cc2)C1`, the concentration giving a half-maximal response (EC50) in series [2] is 354 nM; in series [3] it was over 25 µM.
Turning to `CCCCOc1ccc2oc(-c3ncc(CN4CC(C(=O)O)C4)s3)cc2c1`, the EC50 in series [2] is over 1000 nM; in series [3], over 25 µM.
Take `CCCCOc1ccc2cc(-c3ccc(CN4CC(C(=O)O)C4)cc3)oc2c1`: the 50% effective concentration (EC50) in series [2] was found to be 2290 nM; in series [3], 25 µM. In series [5], the Efficacy was found to be 89%.
In the case of `O=C(O)C1CN(Cc2ccc(-c3cc4cc(Cc5ccccc5)ccc4o3)c(F)c2)C1`, the clearance in [6] is 4.43 mL/min/kg; in series [12] it was 2.3 mL/min/kg; in [26], 5.15 mL/min/kg. The inhibition result in the series on Mus musculus is “Active”. Moreover, the values for the bioavailability in [7], in series [16] and in [33] were 80%, 51% and 88%, respectively. Moreover, in the series with Rattus norvegicus [8], the inhibition in vivo at 3 mg/kg was determined as 75%. Besides, the Vd in [9] stood at 1.7 L/kg; in [15], 2.2 L/kg; in series [27] it was 1 L/kg. The inhibition entry with Rattus norvegicus [10] is “Dose-dependent effect”. The mean residence time MRT was 3.4 h in series [11], 12.7 h in series [22] and 9 h in series [32]. Further, the Activity entry is given as “Toxic” in the series on Rattus norvegicus [13]; “Toxic” in the series on Rattus norvegicus [18]; “Not Active” in [19]; “Non-toxic” with Rattus norvegicus [28]; “Non-toxic” with Rattus norvegicus [29]; “Non-toxic” in series [30]. The “inhibition (INH)” value in series [14] was “Not Active”. Further, the EC50 in series [2] is 57 nM; in series [3] it was 27 µM. Besides, the IC50 in [17] is 17 µM. Further, the half-life is over 90 min in series [20], 726 min in series [21], 282 min in [24] and 1270 min in series [25]. The inhibition in vivo at 1 mg/kg in the series on Rattus norvegicus [23] turned out to be 75%. The Selectivity ratio in the series filed under Homo sapiens is over 1000. The NOAEL at 96 h in series [31] was determined as 20 mg/kg.
Take `CCCCc1ccc2oc(-c3ccc(CN4CC(C(=O)O)C4)cc3)cc2c1`: the EC50 is 350 nM in [1], 2480 nM in [2] and over 25 µM in series [3].
For the molecule `O=C(O)C1CN(Cc2ccc(-c3cc4cc(N5CCCCC5)ccc4o3)cc2)C1`, the EC50 in [2] came out at 620 nM; in series [3], 1.44 µM. Also, the Selectivity ratio in the series filed under Homo sapiens is 2.
In the case of `O=C(O)C1CN(Cc2ccc(-c3cc4cc(Cc5ccccc5)ccc4o3)cc2F)C1`, the EC50 in series [2] came out at 253 nM; in series [3] it was 3.43 µM. The same molecule returned an Efficacy in [5] of 100%.
In the case of `FC(F)(F)c1cccc(-c2noc(-c3cc(-c4ccccc4)c(C(F)(F)F)s3)n2)c1`, in series [4], the IC50 is over 10 µM.
In the case of `O=C(O)C1CN(Cc2ccc(-c3cc4cc(C5CCCCC5)ccc4o3)c(F)c2)C1`, the EC50 in series [2] was 48 nM; in series [3], over 25 µM. In [5], the Efficacy was 100%.
With `O=C(O)C1CN(Cc2ccc(-c3cc4cc(C5CCCCC5)ccc4o3)nc2)C1`, the EC50 was 424 nM in series [2] and over 25 µM in series [3]. Moreover, the Efficacy in [5] came to 115%.
On to `O=C(O)C1CN(Cc2ccc(-c3cc4cc(Cc5ccccc5)ccc4o3)cc2)C1`, for which the figures for the EC50 in series [1], in series [2] and in series [3] were 440 nM, 2070 nM and over 4.3 µM, respectively.
